Test results reported in ChEMBL document CHEMBL3217491, “Design, synthesis and biological evaluation of imidazopyridine/pyrimidine-chalcone derivatives as potential anticancer agents” (2010).

Tests used:
Type in all cases: functional
[1] = Growth inhibition of human BT549 cells after 48 hrs by SRB assay; conditions: BT-549, 48 h
CCRF-CEM = experiment: Growth inhibition of human CCRF-CEM cells after 48 hrs by SRB assay
NCI-H460 = experiment: Growth inhibition of human NCI-H460 cells after 48 hrs by SRB assay; conditions: NCI-H460, 48 h
MCF7 = experiment: Growth inhibition of human MCF7 cells after 48 hrs by SRB assay; conditions: MCF7, 48 h
PC-3 = experiment: Growth inhibition of human PC3 cells after 48 hrs by SRB assay; conditions: PC-3, 48 h
RPMI-8226 = experiment: Growth inhibition of human RPMI8226 cells after 48 hrs by SRB assay; conditions: RPMI-8226, 48 h
HT-29 = experiment: Growth inhibition of human HT-29 cells after 48 hrs by SRB assay; conditions: HT-29, 48 h
[2] = Growth inhibition of human SF295 cells after 48 hrs by SRB assay; conditions: SF-295, 48 h
M14 = experiment: Growth inhibition of human M14 cells after 48 hrs by SRB assay; conditions: M14, 48 h
[3] = Growth inhibition of human Hs578T cells after 48 hrs by SRB assay; conditions: Hs-578T
COLO 205 = experiment: Growth inhibition of human COLO205 cells after 48 hrs by SRB assay; conditions: COLO 205, 48 h
[4] = Growth inhibition of human UO31 cells after 48 hrs by SRB assay; conditions: UO-31, 48 h
[5] = Growth inhibition of human HCT15 cells after 48 hrs by SRB assay; conditions: HCT-15, 48 h
HOP-62 = experiment: Growth inhibition of human HOP62 cells after 48 hrs by SRB assay; conditions: HOP-62, 48 h
A498 = experiment: Growth inhibition of human A498 cells after 48 hrs by SRB assay; conditions: A498, 48 h
[6] = Growth inhibition of human OVCAR4 cells after 48 hrs by SRB assay; conditions: OVCAR-4, 48 h
SNB-75 = experiment: Growth inhibition of human SNB75 cells after 48 hrs by SRB assay; conditions: SNB-75, 48 h
MDA-MB-435 = experiment: Growth inhibition of human MDA-MB-435 cells after 48 hrs by SRB assay; conditions: MDA-MB-435, 48 h
HCT-116 = experiment: Growth inhibition of human HCT116 cells after 48 hrs by SRB assay; conditions: HCT-116, 48 h
K562 = experiment: Growth inhibition of human K562 cells after 48 hrs by SRB assay; conditions: K562, 48 h
SR = experiment: Growth inhibition of human SR cells after 48 hrs by SRB assay
[7] = Growth inhibition of human OVCAR5 cells after 48 hrs by SRB assay; conditions: OVCAR-5, 48 h
[8] = Growth inhibition of human UACC62 cells after 48 hrs by SRB assay; conditions: UACC-62, 48 h
ACHN = experiment: Growth inhibition of human ACHN cells after 48 hrs by SRB assay
[9] = Growth inhibition of human OVCAR8 cells after 48 hrs by SRB assay; conditions: OVCAR-8, 48 h
SNB-19 = experiment: Growth inhibition of human SNB19 cells after 48 hrs by SRB assay; conditions: SNB-19, 48 h
[10] = Growth inhibition of human EKVX cells after 48 hrs by SRB assay
SK-MEL-5 = experiment: Growth inhibition of human SK-MEL-5 cells after 48 hrs by SRB assay; conditions: SK-MEL-5, 48 h
SW-620 = experiment: Growth inhibition of human SW620 cells after 48 hrs by SRB assay; conditions: SW-620, 48 h
SK-MEL-28 = experiment: Growth inhibition of human SK-MEL-28 cells after 48 hrs by SRB assay; conditions: SK-MEL-28, 48 h
NCI-H522 = experiment: Growth inhibition of human NCI-H522 cells after 48 hrs by SRB assay; conditions: NCI-H522, 48 h
SN12C = experiment: Growth inhibition of human SN12C cells after 48 hrs by SRB assay
[11] = Growth inhibition of human NCI-ADR-RES cells after 48 hrs by SRB assay
[12] = Growth inhibition of human SF539 cells after 48 hrs by SRB assay; conditions: SF-539, 48 h
NCI-H322M = experiment: Growth inhibition of human NCI-H322M cells after 48 hrs by SRB assay
IGROV-1 = experiment: Growth inhibition of human IGROV1 cells after 48 hrs by SRB assay; conditions: IGROV-1, 48 h
NCI-H23 = experiment: Growth inhibition of human NCI-H23 cells after 48 hrs by SRB assay; conditions: NCI-H23, 48 h
[13] = Growth inhibition of human LOXIMVI cells after 48 hrs by SRB assay; conditions: LOX IMVI
A549 = experiment: Growth inhibition of human A549 cells after 48 hrs by SRB assay; conditions: A549, 48 h
SK-MEL-2 = experiment: Growth inhibition of human SK-MEL-2 cells after 48 hrs by SRB assay; conditions: SK-MEL-2, 48 h
MDA-MB-468 = experiment: Growth inhibition of human MDA-MB-468 cells after 48 hrs by SRB assay; conditions: MDA-MB-468, 48 h
TK-10 = experiment: Growth inhibition of human TK10 cells after 48 hrs by SRB assay; conditions: TK-10, 48 h
[14] = Growth inhibition of human HCC2998 cells after 48 hrs by SRB assay; conditions: HCC 2998, 48 h
T47D = experiment: Growth inhibition of human T47D cells after 48 hrs by SRB assay
CAKI-1 = experiment: Growth inhibition of human Caki1 cells after 48 hrs by SRB assay; conditions: CAKI-1, 48 h
SK-OV-3 = experiment: Growth inhibition of human SKOV3 cells after 48 hrs by SRB assay; conditions: SK-OV-3, 48 h
KM12 = experiment: Growth inhibition of human KM12 cells after 48 hrs by SRB assay; conditions: KM12, 48 h
NCI-H226 = experiment: Growth inhibition of human NCI-H226 cells after 48 hrs by SRB assay; conditions: NCI-H226, 48 h
[15] = Growth inhibition of human MOLT4 cells after 48 hrs by SRB assay; conditions: MOLT-4, 48 h
Malme-3M = experiment: Growth inhibition of human MALME-3M cells after 48 hrs by SRB assay
[16] = Growth inhibition of human UACC257 cells after 48 hrs by SRB assay; conditions: UACC-257, 48 h
SF-268 = experiment: Growth inhibition of human SF268 cells after 48 hrs by SRB assay; conditions: SF-268, 48 h
786-0 = experiment: Growth inhibition of human 786-0 cells after 48 hrs by SRB assay; conditions: 786-0, 48 h
U-251 = experiment: Growth inhibition of human U251 cells after 48 hrs by SRB assay; conditions: U-251, 48 h
MDA-MB-231 = experiment: Growth inhibition of human MDA-MB-231 cells after 48 hrs by SRB assay; conditions: MDA-MB-231, 48 h
[17] = Growth inhibition of human OVCAR3 cells after 48 hrs by SRB assay; conditions: OVCAR-3, 48 h
HL-60(TB) = experiment: Growth inhibition of human HL-60(TB) cells after 48 hrs by SRB assay; conditions: HL-60, 48 h
DU-145 = experiment: Growth inhibition of human DU145 cells after 48 hrs by SRB assay; conditions: DU-145, 48 h

With `COc1ccc(-c2nc3ccccn3c2/C=C/C(=O)c2cc(OC)c(OC)c(OC)c2)cc1OC` the GI50 [1] was 890 nM, the GI50 (CCRF-CEM) was 1540 nM and the GI50 (NCI-H460) was 2990 nM. It also gave a GI50 (MCF7) of 2760 nM, a GI50 (PC-3) of 3710 nM and a GI50 (RPMI-8226) of 390 nM. For the same compound, the GI50 (HT-29) was 3200 nM, the GI50 [2] was 1850 nM and the GI50 (M14) was 4480 nM. It also gave a GI50 [3] of 1850 nM, a GI50 (COLO 205) of 3920 nM and a GI50 [4] of 550 nM. It also gave a GI50 [5] of 3730 nM, a GI50 (HOP-62) of 4420 nM and a GI50 (A498) of 2930 nM. For the same compound, the GI50 [6] was 2430 nM, the GI50 (SNB-75) was 3920 nM and the GI50 (MDA-MB-435) was 1780 nM. The GI50 (HCT-116) was 2620 nM, the GI50 (K562) was 2990 nM and the GI50 (SR) was 1900 nM. It also gave a GI50 [7] of 7380 nM, a GI50 [8] of 4860 nM and a GI50 (ACHN) of 3220 nM. For the same compound, the GI50 [9] was 2830 nM, the GI50 (SNB-19) was 4910 nM and the GI50 [10] was 1710 nM. It also gave a GI50 (SK-MEL-5) of 1500 nM, a GI50 (SW-620) of 2780 nM and a GI50 (SK-MEL-28) of 3300 nM. It also gave a GI50 (NCI-H522) of 2740 nM, a GI50 (SN12C) of 4100 nM and a GI50 [11] of 2180 nM. It also gave a GI50 [12] of 2710 nM, a GI50 (NCI-H322M) of 2080 nM and a GI50 (IGROV-1) of 3030 nM. It also gave a GI50 (NCI-H23) of 3780 nM, a GI50 [13] of 2260 nM and a GI50 (A549) of 3860 nM. The GI50 (SK-MEL-2) was 2370 nM, the GI50 (MDA-MB-468) was 2280 nM and the GI50 (TK-10) was 3280 nM. For the same compound, the GI50 [14] was 3800 nM, the GI50 (T47D) was 3010 nM and the GI50 (CAKI-1) was 1390 nM. The GI50 (SK-OV-3) was 4920 nM, the GI50 (KM12) was 2520 nM and the GI50 (NCI-H226) was 6100 nM. It also gave a GI50 [15] of 2180 nM, a GI50 (Malme-3M) of 2360 nM and a GI50 [16] of 3240 nM. The GI50 (SF-268) was 3580 nM, the GI50 (786-0) was 3740 nM and the GI50 (U-251) was 2910 nM. For the same compound, the GI50 (MDA-MB-231) was 3280 nM, the GI50 [17] was 2470 nM and the GI50 (HL-60(TB)) was 2530 nM. It also gave a GI50 (DU-145) of 2630 nM.
